The assay concerns L1210 leukemia ip in BDF1 mice, survival T/C. Briefly: NCI In Vivo Anticancer Drug Screen. Data for tumor model L1210 Leukemia (intraperitoneal) in B6D2F1 (BDF1) mice. The following applies: endpoint: mean survival time, higher = longer survival. In a few lines: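 In this screen, tumor-bearing mice given compound are compared to those given vehicle, and their survival values are reported as a treated-to-control quotient.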

Inconclusive results and toxic doses are left out.

Consider `CCCCCCCCCCCCCCCC(=O)SCCSC(=O)CCCCCCCCCCCCCCC`, for which the T/C by setting is: (dose: 87.5 mg/kg/injection, schedule: Q04DX003 (ip), vehicle: other) 93 % of control; (dose: 175.0 mg/kg/injection, schedule: Q04DX003 (ip), vehicle: other) 93 % of control.
For `CCCCOC(=O)c1ccc(OC(=O)Nc2ccc(OC)cc2Cl)cc1`, the T/C is 110 % of control (dose: 100.0 mg/kg/injection, schedule: Q04DX002 (ip), vehicle: saline); 104 % of control (dose: 200.0 mg/kg/injection, schedule: Q04DX002 (ip), vehicle: saline); 100 % of control (dose: 400.0 mg/kg/injection, schedule: Q04DX002 (ip), vehicle: saline).
Take `O=C1NCCCCN1`: the T/C by setting is: (dose: 100.0 mg/kg/injection, schedule: Q04DX003 (ip), vehicle: saline with Tween-80) 100 % of control; (dose: 200.0 mg/kg/injection, schedule: Q04DX003 (ip), vehicle: saline with Tween-80) 100 % of control; (dose: 400.0 mg/kg/injection, schedule: Q04DX003 (ip), vehicle: saline with Tween-80) 101 % of control.
For `Oc1cc2c(cc1O)CN1CCc3cc(O)c(O)cc3C1C2` (stereo unspecified), the T/C reads like this: (dose: 75.0 mg/kg/injection, schedule: Q01DX001 (ip), vehicle: saline) 103 % of control; (dose: 150.0 mg/kg/injection, schedule: Q01DX001 (ip), vehicle: saline) 105 % of control; (dose: 300.0 mg/kg/injection, schedule: Q01DX001 (ip), vehicle: saline) 93 % of control.

The values are drawn from PubChem BioAssay AID248 (DTP/NCI, 2004).
